Experimental data reported in patent publication US11459315B2, “Modulators of methyl modifying enzymes, compositions and uses thereof” (Constellation Pharmaceuticals, Inc., priority 2017, dated 2022).
Where two headings read alike, the source gives them in different places.

Tests used:
[1] = molecular target: PRC2 containing wt EZH2 (Homo sapiens (Human), UniProt Q15910); assay: EZH2 biochemical assay (IC50), 3H-SAM incorporation into biotinylated H3 peptide
How it was run: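 The PRC2 pentamer with wt EZH2 (30 pM) was pre-incubated for 3-5 h with 450 nM SAM plus 450 nM ³H-SAM, 2 µM H3K27me3 activating peptide and compound (0.8% DMSO) in Tris at pH 8.5. Biotinylated H3K27me1 peptide was added and the reaction ran 18-22 h at RT. Incorporated ³H was captured on streptavidin plates, and IC50 was taken from a four-parameter fit.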

[2] = tested on: H3K27me3 mark in HeLa cells (EZH2); assay: H3K27me3 Alpha Hela Assay (AlphaLISA); format: cell-based; conditions: HeLa cells, 72 hrs, read-out: EZH2 Cell H3K27me3 Alpha HeLa (EC50 K27me3)
How it was run: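 HeLa cells (1,000/well) treated with ten 3-fold compound doses for 72 h at 37 °C; lysates extracted and H3K27me3 detected by AlphaLISA with anti-K27me3 acceptor beads, biotinylated anti-H3 (3 nM) and streptavidin donor beads. EC50 from DMSO-normalized dose-response curves; duplicate plate assessed viability.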

[3] = EZH2 (IC50), 30 pM PRC2 containing wt EZH2; 3-5 h pre-incubation
[4] = 30 pM PRC2 containing wt EZH2; 3-5 h pre-incubation; read-out: EZH2 (IC50)

Sequence of PRC2 containing wt EZH2 (Q15910 whole entry): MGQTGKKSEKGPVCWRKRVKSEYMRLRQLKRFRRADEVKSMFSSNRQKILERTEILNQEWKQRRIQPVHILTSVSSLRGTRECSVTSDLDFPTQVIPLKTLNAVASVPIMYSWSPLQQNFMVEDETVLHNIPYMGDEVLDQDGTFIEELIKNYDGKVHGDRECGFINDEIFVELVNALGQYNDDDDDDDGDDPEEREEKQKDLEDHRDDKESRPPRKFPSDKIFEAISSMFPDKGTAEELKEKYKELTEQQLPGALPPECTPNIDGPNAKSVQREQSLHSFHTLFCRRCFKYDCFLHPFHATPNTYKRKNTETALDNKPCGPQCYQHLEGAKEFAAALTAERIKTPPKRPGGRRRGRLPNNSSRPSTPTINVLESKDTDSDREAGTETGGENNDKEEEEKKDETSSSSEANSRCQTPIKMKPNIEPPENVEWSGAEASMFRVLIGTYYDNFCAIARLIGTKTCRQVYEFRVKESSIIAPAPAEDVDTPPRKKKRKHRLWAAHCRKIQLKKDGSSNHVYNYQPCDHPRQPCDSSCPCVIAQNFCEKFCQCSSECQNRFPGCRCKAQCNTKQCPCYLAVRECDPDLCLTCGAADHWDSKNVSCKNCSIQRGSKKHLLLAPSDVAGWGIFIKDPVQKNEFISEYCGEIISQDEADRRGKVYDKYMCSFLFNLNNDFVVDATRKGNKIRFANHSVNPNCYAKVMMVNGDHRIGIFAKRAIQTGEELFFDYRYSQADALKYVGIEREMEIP
Sequence of PRC2 containing wt EZH2 (O75530 whole entry partner): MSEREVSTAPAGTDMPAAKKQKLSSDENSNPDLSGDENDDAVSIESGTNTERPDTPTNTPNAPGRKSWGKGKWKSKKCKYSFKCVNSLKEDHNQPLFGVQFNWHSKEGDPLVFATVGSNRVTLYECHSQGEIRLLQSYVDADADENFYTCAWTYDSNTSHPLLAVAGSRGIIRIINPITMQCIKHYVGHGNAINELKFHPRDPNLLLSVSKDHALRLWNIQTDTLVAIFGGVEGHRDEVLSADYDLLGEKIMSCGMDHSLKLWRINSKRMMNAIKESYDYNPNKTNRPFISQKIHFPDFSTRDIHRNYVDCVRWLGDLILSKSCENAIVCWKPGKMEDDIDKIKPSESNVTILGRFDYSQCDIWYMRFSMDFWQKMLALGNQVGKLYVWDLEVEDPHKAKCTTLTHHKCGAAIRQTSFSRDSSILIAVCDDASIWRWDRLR
Sequence of PRC2 containing wt EZH2 (Q15022 whole entry partner): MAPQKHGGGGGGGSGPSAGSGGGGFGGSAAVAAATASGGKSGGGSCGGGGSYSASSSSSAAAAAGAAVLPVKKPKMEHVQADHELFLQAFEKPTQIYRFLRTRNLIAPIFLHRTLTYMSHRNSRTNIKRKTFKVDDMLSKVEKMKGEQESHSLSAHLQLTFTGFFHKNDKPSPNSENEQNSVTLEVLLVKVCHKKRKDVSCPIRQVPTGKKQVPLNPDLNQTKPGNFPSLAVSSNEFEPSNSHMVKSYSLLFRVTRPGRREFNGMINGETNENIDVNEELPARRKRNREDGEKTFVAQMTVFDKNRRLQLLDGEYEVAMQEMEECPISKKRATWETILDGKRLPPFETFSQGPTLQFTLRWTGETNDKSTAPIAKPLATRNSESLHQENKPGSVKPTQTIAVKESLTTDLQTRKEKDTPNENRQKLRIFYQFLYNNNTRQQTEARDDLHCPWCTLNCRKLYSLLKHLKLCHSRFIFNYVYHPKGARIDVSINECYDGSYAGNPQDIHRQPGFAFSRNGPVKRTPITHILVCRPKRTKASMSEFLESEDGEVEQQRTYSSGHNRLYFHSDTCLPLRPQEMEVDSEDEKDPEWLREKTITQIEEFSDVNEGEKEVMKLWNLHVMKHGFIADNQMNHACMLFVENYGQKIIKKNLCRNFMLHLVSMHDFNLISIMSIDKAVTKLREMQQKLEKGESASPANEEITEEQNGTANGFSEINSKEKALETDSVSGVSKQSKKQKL
Sequence of PRC2 containing wt EZH2 (Q09028 whole entry partner): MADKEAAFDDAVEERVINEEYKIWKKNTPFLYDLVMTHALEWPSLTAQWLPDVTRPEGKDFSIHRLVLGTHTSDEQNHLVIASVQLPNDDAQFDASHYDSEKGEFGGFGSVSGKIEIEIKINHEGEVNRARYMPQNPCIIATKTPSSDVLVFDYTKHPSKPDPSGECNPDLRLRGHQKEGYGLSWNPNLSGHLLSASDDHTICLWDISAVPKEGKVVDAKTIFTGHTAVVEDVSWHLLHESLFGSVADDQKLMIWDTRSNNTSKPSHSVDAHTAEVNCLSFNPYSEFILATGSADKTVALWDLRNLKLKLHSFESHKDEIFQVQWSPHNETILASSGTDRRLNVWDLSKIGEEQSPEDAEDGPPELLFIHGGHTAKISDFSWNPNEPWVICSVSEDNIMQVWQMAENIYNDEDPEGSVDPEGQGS
Sequence of PRC2 containing wt EZH2 (Q6ZN18 whole entry partner): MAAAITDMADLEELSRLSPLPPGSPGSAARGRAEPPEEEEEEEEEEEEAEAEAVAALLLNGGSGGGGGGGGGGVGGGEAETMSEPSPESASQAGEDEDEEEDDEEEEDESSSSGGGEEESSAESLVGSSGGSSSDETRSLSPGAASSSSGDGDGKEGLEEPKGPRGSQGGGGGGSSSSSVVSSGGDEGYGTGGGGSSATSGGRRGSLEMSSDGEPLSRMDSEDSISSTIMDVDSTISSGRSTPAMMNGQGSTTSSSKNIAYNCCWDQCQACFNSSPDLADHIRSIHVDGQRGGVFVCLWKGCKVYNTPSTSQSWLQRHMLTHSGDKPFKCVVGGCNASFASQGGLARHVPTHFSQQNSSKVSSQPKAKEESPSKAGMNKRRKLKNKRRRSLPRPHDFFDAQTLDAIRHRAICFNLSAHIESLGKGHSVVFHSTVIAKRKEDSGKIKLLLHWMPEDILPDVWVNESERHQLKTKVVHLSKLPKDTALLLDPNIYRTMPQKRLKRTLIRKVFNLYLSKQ

SMILES | IC50 [1, 3] [nM] | EC50 ([2]; Homo sapiens, HeLa, 72 h) [nM] | IC50 [1, 4] [nM] | EC50 [2] [nM] | IC50 ([1]; read-out: EZH2 (IC50); 30 pM PRC2 containing wt EZH2; 3-5 h pre-incubation) [nM]
CSc1cc(C)[nH]c(=O)c1CNC(=O)c1c(C)n([C@H](C)C2COC2)c2ccccc12 (single isomer, unassigned) [14 (isomer 1)] | < 0.5 | 10 to 100 |  |  | 
CSc1cc(C)[nH]c(=O)c1CNC(=O)c1c(C)n([C@H](C)C2CCC(N3CC(OC(F)F)C3)CC2)c2ccccc12 (single isomer, unassigned) [20 (isomer 2)] |  |  | < 0.5 | 10 to 100 | 
CSc1cc(C)[nH]c(=O)c1CNC(=O)c1c(C)n([C@H](C)C23CC(N(C)C4COC4)(C2)C3)c2ccccc12 [Example 9, (R)-2-methyl-1-(1-(3-(methyl(oxetan-3-yl)amino)bicyclo[1.1.1]pentan-1-yl)ethyl)-N-((6-methyl-4-(methylthio)-2-oxo-1,2-dihydropyridin-3-yl)methyl)-1H-indole-3-carboxamide] |  | < 10 | < 0.5 |  | 
CSc1cc(C)[nH]c(=O)c1CNC(=O)c1c(C)n([C@H](C)C2OCC(N3CCC3(C)C)CO2)c2ccccc12 (single isomer, unassigned) [15 (isomer 2)] |  |  |  | > 100 | < 0.5
CSc1cc(C)[nH]c(=O)c1CNC(=O)c1c(C)n([C@H](C)C2CCN(C3CC3)CC2)c2cc(F)ccc12 [Example 57, (R)-1-(1-(1-cyclopropylpiperidin-4-yl)ethyl)-6-fluoro-2-methyl-N-((6-methyl-4-(methylthio)-2-oxo-1,2-dihydropyridin-3-yl)methyl)-1H-indole-3-carboxamide] | < 0.5 | < 10 |  |  | 
CSc1cc(C)[nH]c(=O)c1CNC(=O)c1c(C)n([C@H](C)C2CCC(OC(F)F)CC2)c2ccccc12 (single isomer, unassigned) [60 (isomer 1)] | < 0.5 | < 10 |  |  | 
CSc1cc(C)[nH]c(=O)c1CNC(=O)c1c(C)n([C@H](C)C2CCN(C3CC(F)C3)CC2)c2ncccc12 (stereo partly drawn) [Example 66, (R)-1-(1-(1-(3-fluorocyclobutyl)piperidin-4-yl)ethyl)-2-methyl-N-((6-methyl-4-(methylthio)-2-oxo-1,2-dihydropyridin-3-yl)methyl)-1H-pyrrolo[2,3-b]pyridine-3-carboxamide] | < 0.5 | 10 to 100 |  |  | 
CSc1cc(C)[nH]c(=O)c1CNC(=O)c1c(C)n([C@H](C)C2CCC(Oc3cnn(C)c3)CC2)c2ncccc12 (single isomer, unassigned) [147 (isomer 1)] |  | < 10 | < 0.5 |  | 
CSc1cc(C)[nH]c(=O)c1CNC(=O)c1c(C)n([C@H](C)C2CCC(N3CC(OC(F)F)C3)CC2)c2c(F)cccc12 (single isomer, unassigned) [121 (isomer 1)] |  |  | < 0.5 | < 10 | 
CSc1cc(C)[nH]c(=O)c1CNC(=O)c1c(C)n([C@H](C)c2ccc(N(C)C)cc2)c2ccccc12 [Example 46, (R)-1-(1-(4-(dimethylamino)phenyl)ethyl)-2-methyl-N-((6-methyl-4-(methylthio)-2-oxo-1,2-dihydropyridin-3-yl)methyl)-1H-indole-3-carboxamide] | < 0.5 | 10 to 100 |  |  | 
CSc1cc(C)[nH]c(=O)c1CNC(=O)c1c(C)n([C@H](C)C2CCN(C3CC3)CC2)c2ncccc12 [Example 26, (R)-1-(1-(1-cyclopropylpiperidin-4-yl)ethyl)-2-methyl-N-((6-methyl-4-(methylthio)-2-oxo-1,2-dihydropyridin-3-yl)methyl)-1H-pyrrolo[2,3-b]pyridine-3-carboxamide] | < 0.5 | < 10 |  |  | 
CSc1cc(C)[nH]c(=O)c1CNC(=O)c1c(C)n([C@H](C)C2CCC(N3CC(OC(C)(C)C)C3)CC2)c2ncccc12 (single isomer, unassigned) [112 (isomer 1)] |  | < 10 | < 0.5 |  | 
CSc1cc(C)[nH]c(=O)c1CNC(=O)c1c(C)n([C@H](C)C2CCC(N3CC(OC4CCC4)C3)CC2)c2ncc(Cl)cc12 (stereo partly drawn) [Example 126, 5-chloro-1-((R)-1-(4-(3-cyclobutoxyazetidin-1-yl)cyclohexyl)ethyl)-2-methyl-N-((6-methyl-4-(methylthio)-2-oxo-1,2-dihydropyridin-3-yl)methyl)-1H-pyrrolo[2,3-b]pyridine-3-carboxamide] |  | < 10 | < 0.5 |  | 
